Source: US11497765B1, “Thioctamer expedites wound healing” (King Abdulaziz University, priority 2022, dated 2022)

How the values were obtained:
[1] = Thioctamer zeta potential and particle size evaluation (Zetasizer Nano ZSP); assay type: physicochemical
Protocol: Thioctamer was prepared by conjugation of GA and TA in a 1:1 molar ratio. TA was solvated in deionized water (with added of triethanolamine in a 1:1 molar ratio with the amount of TA). GA was dissolved separately in deionized water. The two aqueous solutions were mixed and then vortexed for 60 sec. The prepared thioctamer was assessed for zeta potential and particle size utilizing a Zetasizer Nano ZSP (Malvern Instruments Ltd., Malvern, UK).

[2] = tested on: excision wound on dorsal surface of diabetic rats; experiment: Wound closure in wounded diabetic rats, topical hydrogel treatment; assay type: in vivo, male Wistar rats; settings: day 7, topical daily, 1.5% w/v HPMC hydrogel (TA 4.1, GA 12.5, thioctamer 16.6 mg/g gel), mean±SD, n=6
Protocol: Rats were anesthetized by xylazine and ketamine (10 mg/kg and 100 mg/kg, respectively IP injection). The dorsal surface was shaved, the skin was sterilized by povidone-iodine solution, and an excision circle (1 cm diameter) was made on dorsal surface. After the excision, the wounds were cleaned and dried using sterile saline solution and sterile pads, respectively. Subcutaneous injection of 2% solution of lidocaine hydrochloride having 1:80,000 epinephrine (4.4 mg/kg) was performed near the wound area to reduce pain. […] At days 0, 4, 7, and 10, wounds were photographed and assessed. […]

[3] = tested on: wound tissues of diabetic rats; experiment: Histological investigation of wound tissue (H&E, Masson's trichrome); assay type: in vivo, male Wistar rats; settings: for Ang = Angio-genesis / CD = Collagen deposition / FP = Fibroblast proliferation / GT = Granulation tissue / IC = Inflammatory cell infiltration / RE = Re-epithelization: day 10 wound healing, topical application, diabetic rats; for healing rate by histology (in words): wound tissues collected on day 10, H&E or Masson's trichrome
Protocol: Thirty 210-240 g male Wistar rats were provided by KAU's animal facility and were maintained on a 12-hr dark-light cycle at a temperature of 22 ±2° C. […] Induction of diabetes in rats was carried out as formerly described, i.e. prior to the study, rats were intra-peritoneally injected with streptozotocin (50 mg/kg) for two weeks. Go Accu-Chek was utilized for assessing the level of fasting blood glucose (Roche, Mannheim, Germany) Moderate-diabetic rats with level of fasting blood glucose (200-300 mg/100 mL) were chosen for the experiment.
Rats were anesthetized by xylazine and ketamine (10 mg/kg and 100 mg/kg, respectively IP injection). The dorsal surface was shaved, the skin was sterilized by povidone-iodine solution, and an excision circle (1 cm diameter) was made on dorsal surface. After the excision, the wounds were cleaned and dried using sterile saline solution and sterile pads, respectively. Subcutaneous injection of 2% solution of lidocaine hydrochloride having 1:80,000 epinephrine (4.4 mg/kg) was performed near the wound area to reduce pain. […] All treatments were topically applied daily for a total of 10 days. The wounds were wrapped with sterile gauze dressings and changed daily. At days 0, 4, 7, and 10, wounds were photographed and assessed. Animals were sacrificed by beheading at the end of day 10 and the skin of wound area was cut out. From each animal, a part of the obtained skin was retained in 10% neutral formalin, while the other part was preserved at -80° C. for further analyses.
Wound tissues were preserved for 24 h in 10% neutral formalin, then dehydrated using serial concentrations of ethanol, passed through xylene as a clearing agent, and inserted in paraffin. Tissues' paraffin blocks were cut into 5 μm thickness that were rehydrated after dewaxing. Some sections were stained using E&H (eosin and hematoxylin), whereas the remaining were stained with MT (Masson's trichrome). Histological investigation was carried out by a pathologist without prior knowledge of the groups'treatment. On the basis of the abundance/degree of inflammatory cell infiltration, proliferation of fibroblasts, deposition of collagen, angiogenesis, tissue granulation, and re-epithelization, scores were assigned in a range from - to +++.

IL-6 = experiment: Immunohistochemical assessment of IL-6 expression in wounded skin; assay type: in vivo, male Wistar rats; settings: wounded skin of diabetic rats; negative control 0.42±0.044; mean±SD, n=6
Protocol: (§1) Rats were anesthetized by xylazine and ketamine (10 mg/kg and 100 mg/kg, respectively IP injection). The dorsal surface was shaved, the skin was sterilized by povidone-iodine solution, and an excision circle (1 cm diameter) was made on dorsal surface. After the excision, the wounds were cleaned and dried using sterile saline solution and sterile pads, respectively. Subcutaneous injection of 2% solution of lidocaine hydrochloride having 1:80,000 epinephrine (4.4 mg/kg) was performed near the wound area to reduce pain. […] All treatments were topically applied daily for a total of 10 days. The wounds were wrapped with sterile gauze dressings and changed daily. At days 0, 4, 7, and 10, wounds were photographed and assessed. Animals were sacrificed by beheading at the end of day 10 and the skin of wound area was cut out. […]

TNF-α = experiment: Immunohistochemical assessment of TNF-α expression in wounded skin; assay type: in vivo, male Wistar rats; settings: wounded skin of diabetic rats; negative control 0.47±0.048; mean±SD, n=6
Protocol: as §1

wound on rat skin = settings: seventh day after surgery; topical; negative control 43.0±17.4%; cited from earlier work
wounds in diabetic rats = settings: cited from earlier work

| Molecule | zeta potential [1] [mV] | % wound contraction (healing) [2] [%] | Ang = Angio-genesis [3] | CD = Collagen deposition [3] | FP = Fibroblast proliferation [3] | GT = Granulation tissue [3] | IC = Inflammatory cell infiltration [3] | RE = Re-epithelization [3] | healing rate by histology (in words) [3] | IL-6 expression (immunohistochemistry, image analysis) (IL-6) | TNF-α expression (immunohistochemistry, image analysis) (TNF-α) | healing rate (wound on rat skin) [%] | time to complete wound closure (wounds in diabetic rats) [days] |
| --- | --- | --- | --- | --- | --- | --- | --- | --- | --- | --- | --- | --- | --- |
| O=C(O)CCCCC1CCSS1 (centres unmarked) [TA, thioctic acid] | -26.6±5.39 | 56.5±5.8 | + | ++ | ++ | ++ | +++ | ++ | moderate healing rate | 0.324±0.043 | 0.374±0.039 | 60.7±8.4 | 8 |
| L-alanine compound with L-tyrosine compound with L-lysine compound with L-glutamic acid acetic acid [GA] | – | 62.6±7.1 | + | ++ | ++ | ++ | +++ | ++ | moderate healing rate | 0.318±0.033 | 0.34±0.05 | – | – |
